Measurements reported in US20220401564A1 (DANA-FARBER CANCER INSTITUTE, INC., priority 2019, published 2022).
“Also recorded” adds a separate entry of the source.

Assays:
VHL = target: T1, VHL (Homo sapiens, UniProt P40337); test: Cellular VHL engagement assay (BRD4BD2-GFP / mCherry reporter cells); format: cell-based; conditions: with 250 nM AT1, 5 h
T1 construct: Cells stably expressing the BRD4BD2-GFP with mCherry reporter (40) were seeded; endogenous in cells
Protocol: Cells stably expressing the BRD4BD2-GFP with mCherry reporter (40) were seeded at 30-50% confluency in 384-well plates with 50 μL per well of FluoroBrite™ DMEM media (Thermo Fisher Scientific, A18967) supplemented with 10% FBS a day before compound treatment. Compounds and 250 nM AT1((2S,4R)-1-(2R)-2-Acetamido-3-[[6-[2-[(6S)-4-(4-chlorophenyl)-2,3,9-trimethyl-6H-thieno[3,2-f][1,2,4]triazolo[4,3-a][1,4]diazepin-6-yl]acetamido]hexyl]thio]-3-methylbutanoyl]-4-hydroxy-N-[4-(4-methylthiazol-5-yl)benzyl)pyrrolidinine-2-carboxamide) were dispensed using a D300e Digital Dispenser (HP), normalized to 0.5% DMSO, and incubated with the cells for 5 h. The assay plate was imaged immediately using an Acumen® High Content Imager (TTP Labtech) with 488 nm and 561 nm lasers in a […] grid per well format. The resulting images were analyzed using CellProfiler™.
A series of image analysis steps (an ‘image analysis pipeline’) was constructed. First, the red and green channels were aligned and cropped to target the middle of each well (to avoid analysis of the heavily clumped cells at the edges). A background illumination function was calculated for both red and green channels of each well individually and subtracted to correct for illumination variations across the 384-well plate from various sources of error. An additional step was then applied to the green channel to suppress the analysis of large auto fluorescent artifacts and enhance the analysis of cell specific fluorescence by way of selecting for objects under a given size (30 A.U.) and with a given shape (speckles). mCherry-positive cells were then identified in the red channel by filtering for objects 8-60 pixels in diameter and by using intensity to distinguish between clumped objects. The green channel was then segmented into GFP positive and negative areas and objects were labeled as GFP positive if at least 40% of it overlapped with a GFP positive area. The fraction of GFP-positive cells/mCherry-positive cells in each well was then calculated, and the green and red images were rescaled for visualization.

HDAC3 = HDAC3 (Homo sapiens, UniProt O15379); test: Change in cellular protein abundance (TMT proteomics) in Kelly cells; format: cell-based; set-up: relative change in relative protein abundance with treatment of Kelly cells; endogenous in cells; host or cells: Kelly cells; conditions: for HDAC3 protein levels, relative protein abundance compared to DMSO control: scatter plots FIG. 1 and FIG. 3
Chain of HDAC3 (O15379 whole entry): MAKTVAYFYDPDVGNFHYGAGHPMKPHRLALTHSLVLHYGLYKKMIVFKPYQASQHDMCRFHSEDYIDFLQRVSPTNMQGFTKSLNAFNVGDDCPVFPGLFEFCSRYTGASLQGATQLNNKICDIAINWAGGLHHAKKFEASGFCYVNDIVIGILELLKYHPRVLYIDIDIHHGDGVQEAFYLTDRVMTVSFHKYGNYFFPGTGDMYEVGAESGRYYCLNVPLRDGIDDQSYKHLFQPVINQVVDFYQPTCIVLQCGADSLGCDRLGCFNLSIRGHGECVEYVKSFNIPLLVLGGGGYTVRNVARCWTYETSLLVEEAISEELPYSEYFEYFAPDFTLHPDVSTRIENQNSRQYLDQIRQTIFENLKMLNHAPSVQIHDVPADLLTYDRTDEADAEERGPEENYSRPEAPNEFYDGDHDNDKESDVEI
Protocol: Lysis buffer (8 M Urea, 50 mM NaCl, 50 mM 4-(2hydroxyethyl)-1-piperazineethanesulfonic acid (EPPS) pH 8.5, protease and phosphatase inhibitors from Roche®) were added to the cell pellets and homogenized by 20 passes through a 21 gauge (1.25 in. long) needle to achieve a cell lysate with a protein concentration between 1-4 mg mL-1. A micro-BCA assay (Pierce™) was used to determine the final protein concentration in the cell lysate. 200 μg of protein for each sample were reduced and alkylated as described in Donovan et al., Elife 7:e38430 (2018).
Proteins were precipitated using methanol/chloroform. Four volumes of methanol were added to the cell lysate, followed by one volume of chloroform, and finally three volumes of water. The mixture was vortexed and centrifuged to separate the chloroform phase from the aqueous phase. The precipitated protein was washed with three volumes of methanol, centrifuged and the resulting washed precipitated protein was allowed to air dry. The precipitated protein was resuspended in 4 M Urea, 50 mM HEPES pH 7.4, followed by dilution to 1 M urea with the addition of 200 mM EPPS, pH 8. Proteins were first digested with LysC (1:50; enzyme:protein) for 12 hours at room temperature. The LysC digestion was diluted to 0.5 M Urea with 200 mM EPPS pH 8 followed by digestion with trypsin (1:50; enzyme:protein) for 6 hours at 37° C. Tandem mass tag (TMT) reagents (Thermo Fisher Scientific) were dissolved in anhydrous acetonitrile (ACN) according to manufacturer's instructions.
Anhydrous ACN was added to each peptide sample to a final concentration of 30% v/v, and labeling was induced with the addition of TMT reagent to each sample at a ratio of 1:4 peptide:TMT label. The 10-plex labeling reactions were performed for 1.5 hours at room temperature and the reaction quenched by the addition of hydroxylamine to a final concentration of 0.3% for 15 minutes at room temperature. The sample channels were combined at a 1:1:1:1:1:1:1:1:1:1:1 ratio, desalted using Cis solid phase extraction cartridges (Waters®) and analyzed by LC-MS for channel ratio comparison. Samples were then combined using the adjusted volumes determined in the channel ratio analysis and dried down in a speed vacuum. The combined sample was then resuspended in 1% formic acid, and acidified (pH 2-3) before being subjected to desalting with C18 SPE (Sep-Pak®, Waters®). Samples were then offline fractionated into 96 fractions by high pH reverse-phase HPLC (Agilent® LC1260) through an aeris peptide xb-c18 column (Phenomenex®) with mobile phase A containing 5% acetonitrile and 10 mM NH4HCO3 in LC-MS grade H2O, and mobile phase B containing 90% acetonitrile and 10 mM NH4HCO3 in LC-MS grade H2O (both pH 8.0). The 96 resulting fractions were then pooled in a non-continuous manner into 24 fractions and these fractions were used for subsequent mass spectrometry analysis.
Data were collected using an Orbitrap Fusion™ Lumos™ mass spectrometer (Thermo Fisher Scientific, San Jose, Calif., USA) coupled with a Proxeon EASY-nLC™ 1200 LC pump (Thermo Fisher Scientific). Peptides were separated on an EasySpray™ ES803 75 μm inner diameter microcapillary column (ThermoFisher Scientific).
Each analysis used an MS3-based TMT method as described previously. The data were acquired using a mass range of m z 340-1350, resolution 120,000, automatic gain control (AGC) target 1×10^6, maximum injection time 100 ms, dynamic exclusion of 120 seconds for the peptide measurements in the Orbitrap Fusion™ Lumos™ mass spectrometer. Data dependent MS2 spectra were acquired in the ion trap with a normalized collision energy (NCE) set at 55%, AGC target set to 1.5×10^5 and a maximum injection time of 150 ms. […]

T1 sequence (P40337 whole entry, species assumed): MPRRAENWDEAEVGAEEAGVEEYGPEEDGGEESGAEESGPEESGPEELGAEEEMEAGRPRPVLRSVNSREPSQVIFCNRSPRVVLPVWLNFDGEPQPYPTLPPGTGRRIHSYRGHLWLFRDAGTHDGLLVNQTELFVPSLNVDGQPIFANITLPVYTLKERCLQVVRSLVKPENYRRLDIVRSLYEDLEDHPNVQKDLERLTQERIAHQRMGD

Compound | IC50 (VHL) | cellular HDAC3 protein levels, change in relative protein abundance (heat map FIG. 2) (HDAC3; 1 μM, 5 hours, vs DMSO) | HDAC3 protein levels, relative protein abundance compared to DMSO control (HDAC3)
Cc1ncsc1-c1ccc([C@H](C)NC(=O)[C@@H]2C[C@@H](O)CN2C(=O)[C@@H](NC(=O)CCOCCOCCN(CCc2c[nH]c3ccccc23)Cc2ccc(/C=C/C(=O)NO)cc2)C(C)(C)C)cc1 [Compound 2, (2S,4R)-1-((S)-14-(tert-butyl)-3-(4-((E)-3-(hydroxyamino)-3-oxoprop-1-en-1-yl)benzyl)-1-(1H-indol-3-yl)-12-oxo-6,9-dioxa-3,13-diazapentadecan-15-oyl)-4-hydroxy-N—((S)-1-(4-(4-methylthiazol-5-yl)phenyl)ethyl)pyrrolidine-2-carboxamide] | 11.7 µM | down-regulation | significant and selective reduction
Cc1ncsc1-c1ccc(CNC(=O)[C@@H]2C[C@@H](O)CN2C(=O)[C@@H](NC(=O)C2(F)CC2)C(C)(C)C)c(OCCCCCN(CCc2c[nH]c3ccccc23)Cc2ccc(/C=C/C(=O)NO)cc2)c1 [Compound 7, (2S,4R)—N-(2-((5-((2-(1H-indol-3-yl)ethyl)(4-((E)-3-(hydroxyamino)-3-oxoprop-1-en-1-yl)benzyl)amino)pentyl)oxy)-4-(4-methylthiazol-5-yl)benzyl)-1-((S)-2-(1-fluorocyclopropane-1-carboxamido)-3,3-dimethylbutanoyl)-4-hydroxypyrrolidine-2-carboxamide] | 9.4 µM |  | promote degradation; also recorded: significant and selective reduction
